Experiments:
[1] = tested on: CYP6CM1 from Bemisia tabaci; assay: Inhibition of recombinant oxidase enzyme (P450) CYP6CM1, 7-ethoxycoumarin O-deethylation; conditions: for inhibition activity compared with PBO: CYP6CM1, statement in text; for Bemisia tabaci CYPCM1 percentage of activity remaining: recombinant enzyme 50 μL + 3 μL of 10 mM stock in acetone, 10 min incubation, 7-ethoxycoumarin
Method: Ability of the synergists of the invention to inhibit oxidative enzymes (P450), a major mechanism conferring resistance to xenobiotics, was measured using recombinant enzymes corresponding to CYP6CY3 from Myzus persicae and CYP6CM1 from Bemisia tabaci.
The following synergists were tested in comparison with piperonyl butoxide (PBO): • 5-n-butyl-6-((prop-2-ynyloxy)methyl)benzo[d][1,3]dioxole the compound prepared in Example 2 • 5-n-hexyl-6-((prop-2-ynyloxy)methyl)benzo[d][1,3]dioxole the compound prepared in Example 1 CYP6CM1
Substrate used was 7-ethoxycoumarin for inhibition assays as described by Ulrich and Weber (1972) and adapted to microplate format as described by De Sousa et al. (1995).
For inhibition assays, stock solutions of the compounds of Example 1 and Example 2 (10 mM) were prepared in acetone. Diluted recombinant enzyme (50 μL) was mixed with 3 μL of the above mentioned compound stock solutions, with acetone only used as a control. After 10 min incubation at room temperature, 80 μL of 0.125 mM 7-ethoxycoumarin was added, followed by 10 μL 9.6 mM NADPH (nicotinamide adenine dinucleotide phosphate) in 0.1 M sodium phosphate, pH 7.8, and O-deethylation activity monitored as above. A PBO solution (10 mM) was prepared in the same way as a comparison.

[2] = tested on: Myzus persicae clone highly resistant to insecticide; assay: Contact test on treated plant (pea seedling dip), synergist with neonicotinoid; type: in vivo; conditions: for Efficacy of the tested compounds: synergist 1 g/L, mortality assessed at 48 hours, Abbott's formula
Method: Laboratory bred Myzus persicae clone highly resistant to insecticide, derived from a field collected population after control failure, mixed age apterous parthenogenetic females adults, were assayed for the test.
Four (4) different commercially available formulated insecticides were used and diluted as follow: • imidacloprid: 1000 mL of test solution was prepared diluting in water 20 μL of commercial formulation, containing 200 g/L of a.i., equivalent to 0.004 g of imidacloprid per liter of insecticidal solution; • thiacloprid: 1000 mL of test solution was prepared diluting in water 24 μL of commercial formulation containing 480 g/L of a.i, equivalent to 0.012 g of thiacloprid per liter of insecticidal solution;
The compounds of Example 1 and Example 2 were formulated in the form of emulsified concentrate (EC).
The following amount of the EC formulations were added to the above described insecticidal solution of insecticide to have a final concentration of synergist equal to 1 g/L:
20 mL of test formulations were used to wet by dipping for 5″ a small pea seedling (1-1.5 cm long). Seedlings were left at room temperature in a fume hood and allowed to dry for 15″. After drying 10-15 apterous parthenogenetic females were moved to the seedling and allowed to settle. Mortality produced by pyrethroids was assessed 24 hours later. Mortality produced by neonicotinoids was assessed 48 hours later.
Three replicates were executed each composed by 2 subreplicates (seedlings) and 60-90 specimens were used per test formulation.
In parallel with the test, the mortality of aphids in an untreated control replicate (seedlings dipped in water) was determined using the same conditions and methods.
The efficacy was calculated according the Abbott's formula: […]

[3] = target: T1, Myzus persicae resistance associated esterase, FE4 (Myzus persicae, UniProt P35502); assay: Inhibition of resistance associated esterase FE4, 4-nitrophenyl acetate substrate; type: biochemical; conditions: for inhibition activity compared with PBO: FE4, statement in text; for remaining activity at 10000 µM (stock): purified FE4, 2.5 μL of 10 mM in acetone, 10 min incubation, 4-nitrophenyl acetate 0.8 mM, read-out: Myzus persicae esterases - percentage of the activity remaining FE4
T1 construct: would be utilized for the purified esterases from aphids; from tissue; host or cells: aphids (Myzus persicae)
T1 sequence (P35502 24-564): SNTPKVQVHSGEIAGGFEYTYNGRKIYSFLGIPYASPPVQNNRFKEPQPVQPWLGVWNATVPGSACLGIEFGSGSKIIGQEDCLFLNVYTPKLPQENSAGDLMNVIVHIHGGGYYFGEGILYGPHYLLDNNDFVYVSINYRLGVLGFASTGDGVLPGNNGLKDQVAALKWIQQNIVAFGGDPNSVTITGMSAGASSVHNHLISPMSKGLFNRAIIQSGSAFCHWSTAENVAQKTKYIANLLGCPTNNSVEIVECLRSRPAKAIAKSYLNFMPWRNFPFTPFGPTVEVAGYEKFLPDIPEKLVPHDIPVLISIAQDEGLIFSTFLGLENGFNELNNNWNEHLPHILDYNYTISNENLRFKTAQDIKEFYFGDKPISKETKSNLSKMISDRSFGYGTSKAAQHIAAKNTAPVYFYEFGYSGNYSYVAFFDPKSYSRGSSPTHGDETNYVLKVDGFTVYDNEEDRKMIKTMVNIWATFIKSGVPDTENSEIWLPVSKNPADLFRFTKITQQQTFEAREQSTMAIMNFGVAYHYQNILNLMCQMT
Method: It was envisaged, therefore, that the ‘esterase interference assay’ (Khot et al., 2008) would be utilized for the purified esterases from aphids. Various esterase substrates were assessed to find one suitable of monitoring inhibition in an insect homogenate. The Myzus persicae resistance associated esterase, FE4, was used.
Initially the esterase interference assay was carried out, as being the ‘absolute’ protocol for characterising interactions between the compounds of Example 1 and Example 2 and FE4. However, since this is a protracted method, and it would not be applicable for the B. tabaci esterases, a selection of products already reported in the literature were used to compare the interference assay and the use of a model substrate.
From the literature (Philippou et al., 2013) it is known that 1-naphthyl acetate is not suitable for this assay. Instead, 4-nitrophenyl acetate was used. A 10 mM pNA stock was prepared in acetone and added to 0.02 M phosphate buffer pH 7.0 (final concentration 2 mM). The comparison was made with 6 analogues of variable efficacy.
For the assay 10 μL of purified FE4 was diluted to a total volume of 50 μL by the addition of 0.02 M phosphate buffer, pH 7.0 in individual wells of a microplate (maxisorb, NUNC). To each well, 2.5 μL of 10 mM of the compound of Example 1 and of Example 2 in acetone was added and incubated for 10 mins, with acetone only used as a control. Following incubation, 100 μL of 0.02 phosphate buffer, pH 7.0 and 100 μL of 2 mM 4-nitrophenyl acetate was added (final volume in well 250 μL, final substrate concentration 0.8 mM). Enzyme activity was read at 405 nm in a Spectramax Tmax for 5 min, with readings taken every 5 s. The rate (mOD min^−1) was calculated by the integrated software, Softmax Pro v.5.4. A PBO solution (10 mM) was prepared in the same way as a comparison.

[4] = Imidacloprid (0.004 g per liter)
[5] = thiacloprid (0.012 g per liter)

Row | SMILES | inhibition activity compared with PBO [1] | Bemisia tabaci CYPCM1 percentage of activity remaining [1] | efficacy in combination with imidacloprid and thiacloprid [2] | Efficacy of the tested compounds [2, 4] | Efficacy of the tested compounds [2, 5] | inhibition activity compared with PBO [3] | remaining activity at 10000 µM (stock) [3]
1 | C#CCOCc1cc2c(cc1CCCC)OCO2 [Compound of Example 2, 5-n-butyl-6-((prop-2-ynyloxy)methyl)benzo[d][1,3]dioxole] | better than PBO | 53.48% | very good efficacy | −20.3 | −20.3 | better than PBO | 28.7%
2 | C#CCOCc1cc2c(cc1CCCCCC)OCO2 [Compound of Example 1, 5-n-hexyl-6-((prop-2-ynyloxy)methyl)benzo[d][1,3]dioxole] | better than PBO | 85.19% | very good efficacy | 23.8 | 23.8 | better than PBO | 23.1%

Source: patent publication US10537100B2, “Substituted methylenedioxybenzyl compounds and their use as synergists” (Endura SPA, priority 2015, dated 2020)
